In US6689750B1, “Bactericide compositions prepared and obtained from microccus varians” (priority 1995, dated 2004):

How the values were obtained:
[1] = test system: Lactobacillus helveticus (N 2); assay: Inactivation by enzymes, agar well test; format: physicochemical; settings: two indicator strains
Gram-negative bacteria = assay: Inhibition spectrum, agar well test, summary; format: cell-based; settings: Table V
From the text: The inhibition spectrum of the supernatant is thus determined.

[2] = test system: strain of Lactococcus lactis which produces lacticin 481; assay: Inhibition spectrum test on the lacticin 481 producer; format: cell-based
From the text: When the strain of Lactococcus lactis which produces lacticin 481 is inoculated in the presence of a […] extract, as previously described in the inhibition spectrum test, the growth of the said strain is seen to be inhibited. The strain of Lactococcus lactis which produces lacticin 481 is immune to its own bacteriocin, lacticin 481, but is not immune to the […] produced by either of the two Micrococcus varians strains according to the present invention.

Row | Substance | influence of catalase on bactericidal activity [1] | inhibitory effect on the growth of Gram-negative bacteria (Gram-negative bacteria) | growth of the lacticin 481 producing strain [2]
1 | variacin: bacteriocin from Micrococcus varians strains CNCM I-1586 and CNCM I-1587, amino acid sequence SEQ ID NO:1 (GSGVIPTISHECHMNSFQFVFTCCS) | not found to exert any influence | does not exert any inhibitory effect | 
2 | lacticin 481 |  |  | immune
